The values that follow come from patent US20260146035A1, “FUSED BICYCLIC COMPOUNDS AND THEIR USE AS MER AND AXL INHIBITORS” (DONG-A ST CO., LTD., priority 2022, published 2026).

For experiment [1], the target named is T1, human AXL (473-end) (Homo sapiens, UniProt P30530).
T1 construct: human AXL (473-end); purchased SignalChem, Canada
T1 sequence (P30530 473-894 limits assumed): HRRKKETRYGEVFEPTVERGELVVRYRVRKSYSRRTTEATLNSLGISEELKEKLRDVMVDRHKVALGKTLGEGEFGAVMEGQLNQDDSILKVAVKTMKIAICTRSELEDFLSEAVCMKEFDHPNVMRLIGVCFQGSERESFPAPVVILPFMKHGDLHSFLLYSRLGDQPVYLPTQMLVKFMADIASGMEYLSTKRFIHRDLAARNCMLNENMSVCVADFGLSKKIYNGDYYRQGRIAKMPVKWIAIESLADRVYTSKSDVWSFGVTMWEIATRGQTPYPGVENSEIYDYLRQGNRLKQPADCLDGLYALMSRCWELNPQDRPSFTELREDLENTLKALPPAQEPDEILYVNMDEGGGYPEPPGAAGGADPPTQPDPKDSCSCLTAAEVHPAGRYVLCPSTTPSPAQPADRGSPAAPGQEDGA
The experiment is described as follows: HTRF kinase activity biochemical assay, AXL. The following applies: 10 μM ATP, 30 minutes pre-incubation.

Experiment [2] deals with T2, human TYRO3 (455-end) (Homo sapiens, UniProt Q06418).
T2 construct: TYRO3 (455-end); purchased SignalChem, Canada
T2 sequence (Q06418 455-890 limits assumed): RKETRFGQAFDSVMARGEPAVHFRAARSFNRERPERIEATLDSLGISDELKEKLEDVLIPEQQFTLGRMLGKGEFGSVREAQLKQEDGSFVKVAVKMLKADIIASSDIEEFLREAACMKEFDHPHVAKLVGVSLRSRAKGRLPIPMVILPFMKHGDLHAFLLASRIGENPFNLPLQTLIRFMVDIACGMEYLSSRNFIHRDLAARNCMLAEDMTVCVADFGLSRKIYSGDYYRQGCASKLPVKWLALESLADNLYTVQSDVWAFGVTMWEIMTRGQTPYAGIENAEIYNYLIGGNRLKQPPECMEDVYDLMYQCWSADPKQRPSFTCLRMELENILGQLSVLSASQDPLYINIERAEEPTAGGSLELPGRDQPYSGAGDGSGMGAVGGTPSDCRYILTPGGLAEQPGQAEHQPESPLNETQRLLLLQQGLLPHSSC
Description: HTRF kinase activity biochemical assay, TYRO3. The following applies: 10 μM ATP, 30 minutes pre-incubation; read-out: HTRF TYRO IC50.

Experiment [3] concerns the target T3, human MER (528-end) (Homo sapiens, UniProt Q12866).
T3 construct: human MER (528-end); purchased Camnabio, Japan
T3 sequence (Q12866 528-999 limits assumed): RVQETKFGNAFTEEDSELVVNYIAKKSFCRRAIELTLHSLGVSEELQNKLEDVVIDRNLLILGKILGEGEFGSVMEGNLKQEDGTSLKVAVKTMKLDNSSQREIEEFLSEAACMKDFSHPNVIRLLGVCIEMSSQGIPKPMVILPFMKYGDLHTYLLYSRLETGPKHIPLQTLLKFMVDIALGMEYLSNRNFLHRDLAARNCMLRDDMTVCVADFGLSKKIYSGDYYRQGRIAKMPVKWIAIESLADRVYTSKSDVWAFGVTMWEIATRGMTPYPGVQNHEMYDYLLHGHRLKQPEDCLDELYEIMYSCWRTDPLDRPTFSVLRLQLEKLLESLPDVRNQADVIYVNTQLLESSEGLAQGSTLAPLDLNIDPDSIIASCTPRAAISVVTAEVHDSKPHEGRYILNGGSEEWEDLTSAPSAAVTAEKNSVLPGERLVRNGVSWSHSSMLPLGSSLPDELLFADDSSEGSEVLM
The experiment is described as follows: HTRF kinase activity biochemical assay, MER. The following applies: 10 μM ATP, 30 minutes pre-incubation; read-out: HTRF MERTK IC50. In general terms: In TR-FRET formats the signal depends on donor and acceptor labels being close together.

pIC50: −log10 of the molar value. Where only a bound is given, the exact number is not on record here.

For orientation: pIC50 means the IC50 on a negative log10 scale, so that one unit is a factor of ten. As for `Cn1cc(-c2cnc(N)c(C(=O)N[C@H]3CCC[C@@H]3OCc3ccc(-c4ccc5c(c4)CCC5N4CCN(CC(O)CO)CC4)cc3)c2)cn1` (stereo partly drawn) [Example 81, 2-amino-N-{(1S,2S)-2-[(4-{1-[4-(2,3-dihydroxypropyl)piperazin-1-yl]-2,3-dihydro-1H-inden-5-yl}phenyl)methoxy]cyclopentyl}-5-(1-methyl-1H-pyrazol-4-yl)pyridine-3-carboxamide], the pIC50 in experiment [1] is more than 8.00; in experiment [2] it was 7.00 to 8.00; in experiment [3] it was more than 8.00.
With `CC1(C)CC(N2CCN(CCO)CC2)c2ccc(-c3ccc(CO[C@H]4CCC[C@@H]4NC(=O)c4cc(-c5ccc(F)nc5)cnc4N)cc3)cc21` (stereo partly drawn) [Example 84, 6-amino-6′-fluoro-N-{(1S,2S)-2-[(4-{1-[4-(2-hydroxyethyl)piperazin-1-yl]-3,3-dimethyl-2,3-dihydro-1H-inden-5-yl}phenyl)methoxy]cyclopentyl}[3,3′-bipyridine]-5-carboxamide], the pIC50 in experiment [1] is more than 8.00; in experiment [2] it was 7.00 to 8.00; in experiment [3] it was more than 8.00.
As to `Nc1ncc(-c2ccc(F)nc2)cc1C(=O)N[C@H]1CCC[C@@H]1OCc1ccc(-c2ccc3c(c2)CC(F)(F)C3N2CCN(CCO)CC2)cc1` (stereo partly drawn) [Example 86, 6-amino-N-{(1S,2S)-2-[(4-{2,2-difluoro-1-[4-(2-hydroxyethyl)piperazin-1-yl]-2,3-dihydro-1H-inden-5-yl}phenyl)methoxy]cyclopentyl}-6′-fluoro[3,3′-bipyridine]-5-carboxamide], the pIC50 was more than 8.00 in experiment [1], 6.00 to 7.00 in experiment [2] and more than 8.00 in experiment [3].
As for `Cn1ccc(-c2cc(C(=O)N[C@H]3CCC[C@@H]3OCc3ccc(-c4ccc5c(c4)CC(F)(F)C5N4CCN(CCO)CC4)cc3)cnc2N)cc1=O` (stereo partly drawn) [Example 87, amino-N-{(1S,2S)-2-[(4-{2,2-difluoro-1-[4-(2-hydroxyethyl)piperazin-1-yl]-2,3-dihydro-1H-inden-5-yl}phenyl)methoxy]cyclopentyl}-1′-methyl-2′-oxo-1′,2′-dihydro[3,4′-bipyridine]-5-carboxamide], the pIC50 is more than 8.00 in experiment [1], 6.00 to 7.00 in experiment [2] and more than 8.00 in experiment [3].
As for `Cn1ccc(-c2cnc(N)c(C(=O)N[C@H]3CCC[C@@H]3OCc3ccc(-c4ccc5c(c4)CC[C@@H]5N4CCN(CCO)CC4)cc3)c2)cc1=O` [Example 92, 6-amino-N-{(1S,2S)-2-[(4-{(1S)-1-[4-(2-hydroxyethyl)piperazin-1-yl]-2,3-dihydro-1H-inden-5-yl}phenyl)methoxy]cyclopentyl}-1′-methyl-2′-oxo-1′,2′-dihydro[3,4′-bipyridine]-5-carboxamide], the pIC50 in experiment [1] is more than 8.00; in experiment [2], 7.00 to 8.00; in experiment [3], more than 8.00.
Consider `CN1CCN(C2CC(C)(C)c3cc(-c4ccc(CO[C@H]5CCC[C@@H]5NC(=O)c5cc(-c6ccc(F)nc6)cnc5N)cc4)ccc32)CC1` (stereo partly drawn) [Example 94, 6-amino-N-[(1S,2S)-2-({4-[3,3-dimethyl-1-(4-methylpiperazin-1-yl)-2,3-dihydro-1H-inden-5-yl]phenyl}methoxy)cyclopentyl]-6′-fluoro[3,3′-bipyridine]-5-carboxamide], for which the pIC50 is more than 8.00 in experiment [1], 7.00 to 8.00 in experiment [2] and more than 8.00 in experiment [3].
As for `Cn1cc(-c2cnc(N)c(C(=O)N[C@H]3CCC[C@@H]3OCc3ccc(-c4ccc5c(N6CCN(CCO)CC6)coc5c4)cc3)c2)cn1` [Example 95, 2-amino-N-{(1S,2S)-2-[(4-{3-[4-(2-hydroxyethyl)piperazin-1-yl]-1-benzofuran-6-yl}phenyl)methoxy]cyclopentyl}-5-(1-methyl-1H-pyrazol-4-yl)pyridine-3-carboxamide], the pIC50 was 6.00 to 7.00 in experiment [1], less than 6.00 in experiment [2] and 7.00 to 8.00 in experiment [3].
`Cn1cc(-c2cnc(N)c(C(=O)N[C@H]3CCC[C@@H]3OCc3ccc(-c4ccc5c(c4)C(C)(C)C[C@H]5N4CCN(CCO)CC4)cc3)c2)cn1` [Example 96, 2-amino-N-{(1S,2S)-2-[(4-{(1R)-1-[4-(2-hydroxyethyl)piperazin-1-yl]-3,3-dimethyl-2,3-dihydro-1H-inden-5-yl}phenyl)methoxy]cyclopentyl}-5-(1-methyl-1H-pyrazol-4-yl)pyridine-3-carboxamide]: the pIC50 in experiment [1] was 7.00 to 8.00; in experiment [2] it was less than 6.00; in experiment [3], 7.00 to 8.00.
For `CC1(C)C[C@@H](N2CCN(CCO)CC2)c2ccc(-c3ccc(CO[C@H]4CCC[C@@H]4NC(=O)c4cc(-c5ccc(F)nc5)cnc4N)cc3)cc21` [Example 97, 6-amino-6′-fluoro-N-{(1S,2S)-2-[(4-{(1R)-1-[4-(2-hydroxyethyl)piperazin-1-yl]-3,3-dimethyl-2,3-dihydro-1H-inden-5-yl}phenyl)methoxy]cyclopentyl}[3,3′-bipyridine]-5-carboxamide], the pIC50 in experiment [1] is 6.00 to 7.00; in experiment [2], less than 6.00; in experiment [3], 6.00 to 7.00.
Take `Cn1cc(-c2cnc(N)c(C(=O)N[C@H]3CCC[C@@H]3OCc3ccc(-c4ccc5c(c4)CC[C@@H]5N4CCN(CC(O)CO)CC4)cc3)c2)cn1` (stereo partly drawn) [Example 98, 2-amino-N-{(1S,2S)-2-[(4-{(1S)-1-[4-(2,3-dihydroxypropyl)piperazin-1-yl]-2,3-dihydro-1H-inden-5-yl}phenyl)methoxy]cyclopentyl}-5-(1-methyl-1H-pyrazol-4-yl)pyridine-3-carboxamide]: the figures for the pIC50 in experiment [1], in experiment [2] and in experiment [3] were more than 8.00, 7.00 to 8.00 and more than 8.00, respectively.
In the case of `Cn1ccc(-c2cnc(N)c(C(=O)N[C@H]3CCC[C@@H]3OCc3ccc(-c4ccc5c(c4)CC[C@@H]5N4CCN(CC(O)CO)CC4)cc3)c2)cc1=O` (stereo partly drawn) [Example 99, 6-amino-N-{(1S,2S)-2-[(4-{(1S)-1-[4-(2,3-dihydroxypropyl)piperazin-1-yl]-2,3-dihydro-1H-inden-5-yl}phenyl)methoxy]cyclopentyl}-1′-methyl-2′-oxo-1′,2′-dihydro[3,4′-bipyridine]-5-carboxamide], the pIC50 in experiment [1] is more than 8.00; in experiment [2] it was 6.00 to 7.00; in experiment [3], more than 8.00.
As for `Cn1cc(-c2cnc(N)c(C(=O)N[C@H]3CCC[C@@H]3OCc3ccc(-c4ccc5c(c4)CC[C@H]5N4CCN(CC(O)CO)CC4)cc3)c2)cn1` (stereo partly drawn) [Example 101, 2-amino-N-{(1S,2S)-2-[(4-{(1R)-1-[4-(2,3-dihydroxypropyl)piperazin-1-yl]-2,3-dihydro-1H-inden-5-yl}phenyl)methoxy]cyclopentyl}-5-(1-methyl-1H-pyrazol-4-yl)pyridine-3-carboxamide], the pIC50 in experiment [1] was 7.00 to 8.00; in experiment [2] it was less than 6.00; in experiment [3], 7.00 to 8.00.
On to `CC1(C)C[C@H](N2CCN(CCO)CC2)c2ccc(-c3ccc(CO[C@H]4CCC[C@@H]4NC(=O)c4cc(-c5ccc(F)nc5)cnc4N)cc3)cc21` [Example 104, 6-amino-6′-fluoro-N-{(1S,2S)-2-[(4-{(1S)-1-[4-(2-hydroxyethyl)piperazin-1-yl]-3,3-dimethyl-2,3-dihydro-1H-inden-5-yl}phenyl)methoxy]cyclopentyl}[3,3′-bipyridine]-5-carboxamide], for which the pIC50 in experiment [1], in experiment [2] and in experiment [3] was more than 8.00 each time.
With `Cn1cc(-c2cnc(N)c(C(=O)N[C@H]3CCC[C@@H]3OCc3ccc(-c4ccc5c(c4)CC(C)(C)C5N4CCN(CCO)CC4)cc3)c2)cn1` (stereo partly drawn) [Example 105, 2-amino-N-{(1S,2S)-2-[(4-{1-[4-(2-hydroxyethyl)piperazin-1-yl]-2,2-dimethyl-2,3-dihydro-1H-inden-5-yl}phenyl)methoxy]cyclopentyl}-5-(1-methyl-1H-pyrazol-4-yl)pyridine-3-carboxamide], the pIC50 in experiment [1] was more than 8.00; in experiment [2] it was 6.00 to 7.00; in experiment [3] it was more than 8.00.
